{"source": "the supplement of paper PMC11851430", "about": "“Workflow for E3 Ligase Ligand Validation for PROTAC Development” (ACS Chemical Biology, 2025)", "assay_in_all_cases": "apparent dissociation constant Kd app (Kinobeads competition, EC50 x correction factor)", "conditions_in_all_cases": "lysate: Jurkat cell lysate", "key": {"ACVR1": {"molecular_target": "ACVR1 (UniProt Q04771)"}, "CSK": {"molecular_target": "CSK (UniProt P41240)"}, "PRKD3": {"molecular_target": "PRKD3 (UniProt O94806)"}, "PRKCA": {"molecular_target": "PRKCA (UniProt P17252)"}, "LATS1": {"molecular_target": "LATS1 (UniProt O95835)"}, "TGFBR1": {"molecular_target": "TGFBR1 (UniProt P36897)"}, "ITK": {"molecular_target": "ITK (UniProt Q08881)"}, "ROCK1": {"molecular_target": "ROCK1 (UniProt Q13464)"}, "PHKG2": {"molecular_target": "PHKG2 (UniProt P15735)"}, "SRC": {"molecular_target": "SRC (UniProt P12931)", "sequence (P12931 whole entry, looked up)": "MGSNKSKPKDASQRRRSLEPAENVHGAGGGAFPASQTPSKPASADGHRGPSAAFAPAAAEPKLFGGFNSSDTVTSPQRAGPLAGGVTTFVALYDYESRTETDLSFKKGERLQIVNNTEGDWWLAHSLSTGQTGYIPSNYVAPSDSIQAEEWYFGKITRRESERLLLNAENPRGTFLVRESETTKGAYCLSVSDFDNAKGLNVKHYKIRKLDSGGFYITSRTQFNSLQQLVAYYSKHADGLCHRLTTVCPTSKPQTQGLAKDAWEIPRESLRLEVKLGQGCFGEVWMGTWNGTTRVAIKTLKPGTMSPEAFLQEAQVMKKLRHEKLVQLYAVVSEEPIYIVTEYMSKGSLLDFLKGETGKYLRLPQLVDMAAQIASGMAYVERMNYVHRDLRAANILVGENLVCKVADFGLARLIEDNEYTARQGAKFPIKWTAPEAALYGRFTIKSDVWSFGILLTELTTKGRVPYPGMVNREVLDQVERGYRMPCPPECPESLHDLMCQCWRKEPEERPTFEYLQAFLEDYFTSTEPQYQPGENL"}, "PRKAA1": {"molecular_target": "PRKAA1 (UniProt Q13131)", "sequence (Q13131 whole entry, looked up)": "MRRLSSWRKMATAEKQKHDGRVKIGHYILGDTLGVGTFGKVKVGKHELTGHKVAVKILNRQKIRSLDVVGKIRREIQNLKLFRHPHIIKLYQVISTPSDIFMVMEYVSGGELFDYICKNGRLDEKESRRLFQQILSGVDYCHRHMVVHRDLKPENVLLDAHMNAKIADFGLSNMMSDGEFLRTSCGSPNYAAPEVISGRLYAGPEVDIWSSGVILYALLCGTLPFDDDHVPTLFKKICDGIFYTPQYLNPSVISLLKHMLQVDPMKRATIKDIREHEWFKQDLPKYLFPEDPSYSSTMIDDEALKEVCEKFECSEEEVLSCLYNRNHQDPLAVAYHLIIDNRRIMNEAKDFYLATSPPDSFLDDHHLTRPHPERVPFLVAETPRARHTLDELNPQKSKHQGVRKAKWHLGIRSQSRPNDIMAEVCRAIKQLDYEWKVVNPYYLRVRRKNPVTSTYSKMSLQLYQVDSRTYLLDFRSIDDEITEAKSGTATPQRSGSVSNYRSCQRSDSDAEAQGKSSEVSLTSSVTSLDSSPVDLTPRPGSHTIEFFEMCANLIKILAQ"}, "MAP3K4": {"molecular_target": "MAP3K4 (UniProt Q9Y6R4)", "sequence (Q9Y6R4 whole entry)": "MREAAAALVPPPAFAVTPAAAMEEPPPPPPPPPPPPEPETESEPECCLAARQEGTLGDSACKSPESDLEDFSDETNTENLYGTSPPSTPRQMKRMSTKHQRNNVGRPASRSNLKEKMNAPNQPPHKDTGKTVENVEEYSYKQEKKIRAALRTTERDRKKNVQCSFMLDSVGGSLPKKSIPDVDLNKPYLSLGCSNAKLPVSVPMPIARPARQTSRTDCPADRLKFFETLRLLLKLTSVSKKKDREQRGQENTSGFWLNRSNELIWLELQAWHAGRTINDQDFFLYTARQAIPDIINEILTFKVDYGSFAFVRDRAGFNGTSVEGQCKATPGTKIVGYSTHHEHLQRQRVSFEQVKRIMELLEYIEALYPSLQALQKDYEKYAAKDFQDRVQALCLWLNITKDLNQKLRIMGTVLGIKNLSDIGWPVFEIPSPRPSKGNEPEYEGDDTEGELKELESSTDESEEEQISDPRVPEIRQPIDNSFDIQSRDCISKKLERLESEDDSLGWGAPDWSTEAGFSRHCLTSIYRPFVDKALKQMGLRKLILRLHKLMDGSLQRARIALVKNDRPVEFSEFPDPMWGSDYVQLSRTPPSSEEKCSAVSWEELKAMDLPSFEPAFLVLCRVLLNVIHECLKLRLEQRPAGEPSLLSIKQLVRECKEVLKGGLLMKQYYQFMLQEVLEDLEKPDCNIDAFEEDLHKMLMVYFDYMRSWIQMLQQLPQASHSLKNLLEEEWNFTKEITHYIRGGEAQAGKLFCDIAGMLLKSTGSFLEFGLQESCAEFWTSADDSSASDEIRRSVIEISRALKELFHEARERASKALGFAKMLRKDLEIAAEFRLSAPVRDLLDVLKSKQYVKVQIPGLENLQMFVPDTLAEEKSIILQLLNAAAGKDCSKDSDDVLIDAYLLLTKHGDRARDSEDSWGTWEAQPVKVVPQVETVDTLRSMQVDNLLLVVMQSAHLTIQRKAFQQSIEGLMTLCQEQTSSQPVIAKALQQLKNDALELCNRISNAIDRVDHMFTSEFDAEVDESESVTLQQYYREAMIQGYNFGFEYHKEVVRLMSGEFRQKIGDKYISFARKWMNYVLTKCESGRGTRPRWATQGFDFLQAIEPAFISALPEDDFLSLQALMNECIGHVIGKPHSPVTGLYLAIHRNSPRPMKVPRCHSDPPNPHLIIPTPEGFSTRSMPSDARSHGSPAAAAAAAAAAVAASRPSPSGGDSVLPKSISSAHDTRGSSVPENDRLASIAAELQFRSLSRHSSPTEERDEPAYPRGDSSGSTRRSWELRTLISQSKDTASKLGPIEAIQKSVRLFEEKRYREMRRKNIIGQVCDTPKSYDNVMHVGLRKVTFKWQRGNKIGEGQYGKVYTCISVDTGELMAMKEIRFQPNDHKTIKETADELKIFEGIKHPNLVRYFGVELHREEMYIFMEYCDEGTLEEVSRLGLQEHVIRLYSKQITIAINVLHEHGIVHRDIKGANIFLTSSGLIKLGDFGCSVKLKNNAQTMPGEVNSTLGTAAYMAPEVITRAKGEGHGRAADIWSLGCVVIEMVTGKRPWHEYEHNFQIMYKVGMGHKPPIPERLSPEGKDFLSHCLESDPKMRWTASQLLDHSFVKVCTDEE"}, "AURKB": {"molecular_target": "AURKB (UniProt Q96GD4)"}, "MAP3K11": {"molecular_target": "MAP3K11 (UniProt Q16584)"}, "TAOK3": {"molecular_target": "TAOK3 (UniProt Q9H2K8)"}, "PAK4": {"molecular_target": "PAK4 (UniProt O96013)", "sequence (O96013 whole entry, looked up)": "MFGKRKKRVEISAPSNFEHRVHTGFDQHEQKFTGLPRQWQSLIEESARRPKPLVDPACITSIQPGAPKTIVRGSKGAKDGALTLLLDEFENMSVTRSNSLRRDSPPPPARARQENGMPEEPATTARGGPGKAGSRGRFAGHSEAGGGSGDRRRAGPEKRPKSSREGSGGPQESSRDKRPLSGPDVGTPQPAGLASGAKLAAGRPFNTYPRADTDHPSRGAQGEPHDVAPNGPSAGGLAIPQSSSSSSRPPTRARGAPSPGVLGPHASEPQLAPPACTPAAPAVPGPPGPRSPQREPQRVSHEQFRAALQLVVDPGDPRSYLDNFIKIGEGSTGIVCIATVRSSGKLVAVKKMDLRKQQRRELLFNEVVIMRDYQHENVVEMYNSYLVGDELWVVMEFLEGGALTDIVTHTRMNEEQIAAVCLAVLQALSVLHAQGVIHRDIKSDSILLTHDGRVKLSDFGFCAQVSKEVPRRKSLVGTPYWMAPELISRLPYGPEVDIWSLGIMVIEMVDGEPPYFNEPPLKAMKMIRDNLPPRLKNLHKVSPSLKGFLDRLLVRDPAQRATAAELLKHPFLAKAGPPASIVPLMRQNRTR"}, "CDC42BPA": {"molecular_target": "CDC42BPA (UniProt Q5VT25)"}, "NEK9": {"molecular_target": "NEK9 (UniProt Q8TD19)"}, "TAOK2": {"molecular_target": "TAOK2 (UniProt Q9UL54)"}, "FGFR1": {"molecular_target": "FGFR1 (UniProt P11362)", "sequence (P11362 whole entry, looked up)": "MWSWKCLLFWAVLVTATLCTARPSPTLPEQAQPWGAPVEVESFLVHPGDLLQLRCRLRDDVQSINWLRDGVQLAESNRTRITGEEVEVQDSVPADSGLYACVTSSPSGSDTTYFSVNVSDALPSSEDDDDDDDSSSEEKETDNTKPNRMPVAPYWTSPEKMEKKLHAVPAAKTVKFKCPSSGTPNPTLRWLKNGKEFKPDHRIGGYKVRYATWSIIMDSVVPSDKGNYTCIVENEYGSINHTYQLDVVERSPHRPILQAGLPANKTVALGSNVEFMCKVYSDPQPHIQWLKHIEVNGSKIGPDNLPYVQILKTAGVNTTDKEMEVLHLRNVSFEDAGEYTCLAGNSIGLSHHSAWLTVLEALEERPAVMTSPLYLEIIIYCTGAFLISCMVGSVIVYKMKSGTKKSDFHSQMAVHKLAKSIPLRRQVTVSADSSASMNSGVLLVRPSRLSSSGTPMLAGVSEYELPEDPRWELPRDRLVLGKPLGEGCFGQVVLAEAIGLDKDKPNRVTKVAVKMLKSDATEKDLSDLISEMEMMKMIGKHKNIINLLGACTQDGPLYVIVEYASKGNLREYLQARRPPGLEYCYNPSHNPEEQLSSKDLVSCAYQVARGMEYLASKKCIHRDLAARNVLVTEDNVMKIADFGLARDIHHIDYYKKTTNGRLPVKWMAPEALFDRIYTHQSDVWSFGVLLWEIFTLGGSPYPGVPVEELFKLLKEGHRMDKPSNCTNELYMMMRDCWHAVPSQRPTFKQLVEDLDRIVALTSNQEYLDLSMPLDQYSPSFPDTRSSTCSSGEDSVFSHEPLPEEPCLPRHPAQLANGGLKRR"}, "CDK1": {"molecular_target": "CDK1 (UniProt P06493)"}, "PKN1": {"molecular_target": "PKN1 (UniProt Q16512)", "sequence (Q16512 whole entry, looked up)": "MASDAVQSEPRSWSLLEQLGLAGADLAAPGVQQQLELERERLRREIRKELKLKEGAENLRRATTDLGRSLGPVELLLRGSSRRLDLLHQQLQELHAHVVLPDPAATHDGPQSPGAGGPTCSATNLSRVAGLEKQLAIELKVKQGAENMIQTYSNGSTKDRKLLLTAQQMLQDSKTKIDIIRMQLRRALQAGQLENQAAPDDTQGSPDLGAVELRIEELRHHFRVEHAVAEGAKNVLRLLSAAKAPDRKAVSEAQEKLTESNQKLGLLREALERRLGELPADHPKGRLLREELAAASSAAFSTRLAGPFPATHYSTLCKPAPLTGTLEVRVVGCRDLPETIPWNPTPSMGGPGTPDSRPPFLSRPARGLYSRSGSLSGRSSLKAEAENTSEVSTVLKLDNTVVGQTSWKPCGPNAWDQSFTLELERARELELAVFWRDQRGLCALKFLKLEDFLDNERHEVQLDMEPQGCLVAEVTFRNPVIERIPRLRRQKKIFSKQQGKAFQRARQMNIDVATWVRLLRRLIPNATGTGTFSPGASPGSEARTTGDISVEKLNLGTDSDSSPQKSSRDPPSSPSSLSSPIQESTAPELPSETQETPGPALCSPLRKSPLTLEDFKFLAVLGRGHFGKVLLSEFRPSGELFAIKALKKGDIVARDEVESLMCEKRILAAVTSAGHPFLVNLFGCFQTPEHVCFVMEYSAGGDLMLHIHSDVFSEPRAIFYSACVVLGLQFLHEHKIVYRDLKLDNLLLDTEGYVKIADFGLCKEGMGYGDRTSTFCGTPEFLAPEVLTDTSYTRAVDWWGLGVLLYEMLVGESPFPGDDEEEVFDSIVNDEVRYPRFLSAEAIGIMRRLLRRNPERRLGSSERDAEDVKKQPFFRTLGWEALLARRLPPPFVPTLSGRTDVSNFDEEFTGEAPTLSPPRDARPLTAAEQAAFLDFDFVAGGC"}}}
{"smiles": "NC(=O)c1ccccc1Nc1nc(Nc2ccc(N3CCNCC3)cc2)ncc1Cl", "values": [{"measurement": "Kd", "setting": "ACVR1", "value": 1270, "unit": "nM"}, {"measurement": "Kd", "setting": "CSK", "value": 2170, "unit": "nM"}, {"measurement": "Kd", "setting": "PRKD3", "value": 255, "unit": "nM"}, {"measurement": "Kd", "setting": "PRKCA", "value": 966, "unit": "nM"}, {"measurement": "Kd", "setting": "LATS1", "value": 48.9, "unit": "nM"}, {"measurement": "Kd", "setting": "TGFBR1", "value": 1370, "unit": "nM"}, {"measurement": "Kd", "setting": "ITK", "value": 38.6, "unit": "nM"}, {"measurement": "Kd", "setting": "ROCK1", "value": 2000, "unit": "nM"}, {"measurement": "Kd", "setting": "PHKG2", "value": 1150, "unit": "nM"}, {"measurement": "Kd", "setting": "SRC", "value": 808, "unit": "nM"}, {"measurement": "Kd", "setting": "PRKAA1", "value": 83, "unit": "nM"}, {"measurement": "Kd", "setting": "MAP3K4", "value": 90, "unit": "nM"}, {"measurement": "Kd", "setting": "AURKB", "value": 35.6, "unit": "nM"}, {"measurement": "Kd", "setting": "MAP3K11", "value": 231, "unit": "nM"}, {"measurement": "Kd", "setting": "TAOK3", "value": 878, "unit": "nM"}, {"measurement": "Kd", "setting": "PAK4", "value": 424, "unit": "nM"}, {"measurement": "Kd", "setting": "CDC42BPA", "value": 1320, "unit": "nM"}, {"measurement": "Kd", "setting": "NEK9", "value": 96.2, "unit": "nM"}, {"measurement": "Kd", "setting": "TAOK2", "value": 558, "unit": "nM"}, {"measurement": "Kd", "setting": "FGFR1", "value": 144, "unit": "nM"}, {"measurement": "Kd", "setting": "CDK1", "value": 1910, "unit": "nM"}, {"measurement": "Kd", "setting": "PKN1", "value": 1520, "unit": "nM"}]}
